Reference: patent publication US9394284B2, “Compounds act at multiple prostaglandin receptors giving a general anti-inflammatory response” (Allergan, Inc., priority 2010, dated 2016)

Assays:
Type in all cases: cell-based
[1] = molecular target: T1, human prostanoid IP receptor (Homo sapiens, UniProt P43119); assay: FLIPR Ca2+ signaling antagonist assay, IP receptor stable cell line; settings: HEK-293 EBNA stable cell line; standard agonist Cicaprost; NA = inactive (no antagonism or Kb 10,000 nM); PAg, Ag not defined
T1 construct: expressed in transfected cells
T1 sequence (P43119 whole entry): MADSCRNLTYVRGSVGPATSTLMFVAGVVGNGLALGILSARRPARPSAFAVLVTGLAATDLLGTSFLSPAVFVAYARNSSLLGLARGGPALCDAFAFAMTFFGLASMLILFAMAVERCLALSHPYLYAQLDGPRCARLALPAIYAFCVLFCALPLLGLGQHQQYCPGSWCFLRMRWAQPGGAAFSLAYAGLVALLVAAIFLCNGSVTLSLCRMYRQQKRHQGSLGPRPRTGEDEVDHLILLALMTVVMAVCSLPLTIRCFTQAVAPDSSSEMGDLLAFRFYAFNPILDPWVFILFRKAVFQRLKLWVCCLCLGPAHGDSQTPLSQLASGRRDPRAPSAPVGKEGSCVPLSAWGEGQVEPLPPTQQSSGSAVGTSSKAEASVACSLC
Description: (§1) The above compounds were tested for PG antagonist activity as follows using human recombinant prostanoid receptor (DP1, EP1-4, FP, IP and TP) stable cell lines:
(§2) In order to measure the response of Gs and Gi coupled prostanoid receptors as a Ca^2+ signal, chimeric G protein cDNAs were used. Stable cell lines over-expressing human prostanoid DP1, EP1-4, FP, IP, and TP receptors were established as follows:
(§3) Briefly, human prostanoid DP1, EP2, and EP4 receptor cDNAs were co-transfected with chimeric Gqs cDNA containing a haemagglutanin (HA) epitope; human prostanoid EP3 receptors were co-transfected with chimeric Gqi-HA; human EP1, FP, IP, and TP receptor cDNAs were expressed with no exogenous G-proteins. Gqs and Gqi chimeric cDNAs (Molecular Devices, Sunnyvale, Calif., U.S.A.), as well as cDNAs of prostanoid receptors, were cloned into a pCEP4 vector with a hygromycin B selection marker. Transfection into HEK-293 EBNA (Epstein-Barr virus nuclear antigen) cells was achieved by the FuGENE 6 transfection Reagent (Roche Applied Science, Indianapolis, Ind., USA). Stable transfectants were selected according to hygromycin resistance. Because Gqs and Gqi contained an HA epitope, G-protein expression was detected by Western blotting analysis using anti-mouse HA monoclonal antibody and horseradish peroxidase (HRP)-conjugated secondary antibody, while functional expression of prostanoid receptors was detected by FLIPR screening (Matias et al., 2004). These stable cell lines were validated using previously published antagonists at 10 μM against serial dilutions of standard agonists by FLIPR functional assays for Ca^2+ Signaling (as described below).
(§4) Ca^2+ signaling studies were performed using a FLIPR TETRA system (Molecular Devices, Sunnyvale, Calif., USA) in the 384-format. This is a high-throughput instrument for cell-based assays to monitor Ca^2+ signaling associated with GPCRs and ion channels. Cells were seeded at a density of 5×10^4 cells/well in BioCoat poly-D-lysine coated, black wall, clear bottom 384-well plates (BD Biosciences, Franklin lakes, NJ, USA) and allowed to attach overnight in an incubator at 37° C. The cells were then washed twice with HBSS-HEPES buffer (Hanks' balanced salt solution without bicarbonate and phenol red, 20 mM HEPES, pH 7.4) using an ELx405 Select CW Microplate Washer (BioTek, Winooski, Vt., USA). After 60 min of dye-loading in the dark using the Ca^2+-sensitive dye Fluo-4AM (Invitrogen, Carlsbad, Calif., USA), at a final concentration of 2×10^−6M, the plates were washed 4 times with HBSS-HEPES buffer to remove excess dye and leaving 50 μl of buffer in each well. The plates were then placed in the FLIPR TETRA instrument and allowed to equilibrate at 37° C. AGN-211377 was added in a 25 μl volume to each well to give final concentrations of 0.1 μM, 0.3 μM, 1 μM, 3 μM, 10 μM, and 30 μM; or 0.067 μM, 0.1 μM, 0.2 μM, 0.3 μM, 0.67 μM, and 1 μM for cells over-expressing TP receptors. After 4.5 minutes, a 7-point serial dilution of the standard agonist for the corresponding receptor, in a 25 μl volume was injected at the final concentrations from 10^−11M to 10^−5M in 10-fold serial dilution increments for cells expressing human recombinant DP1, EP1, EP2, EP3, EP4, FP, and IP receptors. The dose range for the standard agonist for human recombinant TP receptors was from 10^−12 M to 10^−6 M. HBSS-HEPES buffer was used as the negative control for the standard agonists. Cells were excited with LED (light emitting diode) excitation at 470-495 nm and emission was measured through an emission filter at 515-575 nm. Assay plates were read for 3.5 minutes using the FLIPR^TETRA. The peak increase in fluorescence intensity was recorded for each well. On each plate, negative controls, dose response of positive controls, and co-treatments of antagonist-agonist for each dose were in triplicates.
(§5) Standard agonists were as follows: DP=BW 245C, EP1-EP4=PGE2, FP=17-phenyl-PGF2α, IP=Cicaprost, and TP=U-46619. […]

[2] = molecular target: T2, human prostanoid EP1 receptor (Homo sapiens, UniProt P34995); assay: FLIPR Ca2+ signaling antagonist assay, EP1 receptor stable cell line; settings: HEK-293 EBNA stable cell line; standard agonist PGE2; NA = inactive (no antagonism or Kb 10,000 nM); PAg, Ag not defined
T2 construct: expressed in transfected cells
T2 sequence (P34995 1-402): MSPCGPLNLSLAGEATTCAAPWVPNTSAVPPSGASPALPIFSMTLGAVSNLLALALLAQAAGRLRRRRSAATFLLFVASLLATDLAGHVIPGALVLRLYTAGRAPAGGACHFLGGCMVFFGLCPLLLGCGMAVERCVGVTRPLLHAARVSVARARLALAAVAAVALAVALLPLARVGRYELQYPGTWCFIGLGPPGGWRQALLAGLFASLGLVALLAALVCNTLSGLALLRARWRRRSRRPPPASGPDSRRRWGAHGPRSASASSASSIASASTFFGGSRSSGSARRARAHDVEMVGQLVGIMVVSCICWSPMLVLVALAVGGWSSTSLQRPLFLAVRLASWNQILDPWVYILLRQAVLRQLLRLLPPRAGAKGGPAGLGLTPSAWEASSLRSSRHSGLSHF
Description: as §1, §2, §3, §4, §5

[3] = molecular target: T3, human prostanoid FP receptor (Homo sapiens, UniProt P43088); assay: FLIPR Ca2+ signaling antagonist assay, FP receptor stable cell line; settings: HEK-293 EBNA stable cell line; standard agonist 17-phenyl-PGF2α; NA = inactive (no antagonism or Kb 10,000 nM); PAg, Ag not defined
T3 construct: expressed in transfected cells
T3 sequence (P43088 whole entry): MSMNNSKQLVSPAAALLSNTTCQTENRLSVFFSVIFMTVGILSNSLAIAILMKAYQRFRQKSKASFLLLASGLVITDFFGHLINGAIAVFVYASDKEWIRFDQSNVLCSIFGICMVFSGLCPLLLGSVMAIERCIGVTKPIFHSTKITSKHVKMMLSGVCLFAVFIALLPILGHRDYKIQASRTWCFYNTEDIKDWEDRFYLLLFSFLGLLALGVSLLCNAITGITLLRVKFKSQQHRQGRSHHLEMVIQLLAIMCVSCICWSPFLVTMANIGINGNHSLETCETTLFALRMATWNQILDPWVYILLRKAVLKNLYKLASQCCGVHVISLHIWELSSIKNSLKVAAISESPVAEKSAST
Description: as §1, §2, §3, §4, §5

[4] = molecular target: T4, human prostanoid DP1 receptor (Homo sapiens, UniProt Q13258); assay: FLIPR Ca2+ signaling antagonist assay, DP1 receptor stable cell line; settings: HEK-293 EBNA stable cell line; standard agonist BW 245C; NA = inactive (no antagonism or Kb 10,000 nM); PAg, Ag not defined
T4 construct: expressed in transfected cells
T4 sequence (Q13258 1-359): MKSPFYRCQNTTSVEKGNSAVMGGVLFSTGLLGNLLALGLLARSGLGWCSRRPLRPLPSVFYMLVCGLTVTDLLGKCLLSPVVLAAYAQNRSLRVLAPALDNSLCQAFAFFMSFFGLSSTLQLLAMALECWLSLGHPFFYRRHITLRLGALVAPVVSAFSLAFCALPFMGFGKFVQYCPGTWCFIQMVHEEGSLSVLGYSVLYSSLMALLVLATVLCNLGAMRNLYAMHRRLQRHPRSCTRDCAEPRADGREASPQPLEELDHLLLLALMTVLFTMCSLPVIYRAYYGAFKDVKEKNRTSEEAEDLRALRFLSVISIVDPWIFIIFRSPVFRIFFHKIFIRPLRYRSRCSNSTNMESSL
Description: as §1, §2, §3, §4, §5

[5] = molecular target: T5, human prostanoid EP4 receptor (Homo sapiens, UniProt P35408); assay: FLIPR Ca2+ signaling antagonist assay, EP4 receptor stable cell line; settings: HEK-293 EBNA stable cell line; standard agonist PGE2; NA = inactive (no antagonism or Kb 10,000 nM); PAg, Ag not defined
T5 construct: expressed in transfected cells
T5 sequence (P35408 whole entry): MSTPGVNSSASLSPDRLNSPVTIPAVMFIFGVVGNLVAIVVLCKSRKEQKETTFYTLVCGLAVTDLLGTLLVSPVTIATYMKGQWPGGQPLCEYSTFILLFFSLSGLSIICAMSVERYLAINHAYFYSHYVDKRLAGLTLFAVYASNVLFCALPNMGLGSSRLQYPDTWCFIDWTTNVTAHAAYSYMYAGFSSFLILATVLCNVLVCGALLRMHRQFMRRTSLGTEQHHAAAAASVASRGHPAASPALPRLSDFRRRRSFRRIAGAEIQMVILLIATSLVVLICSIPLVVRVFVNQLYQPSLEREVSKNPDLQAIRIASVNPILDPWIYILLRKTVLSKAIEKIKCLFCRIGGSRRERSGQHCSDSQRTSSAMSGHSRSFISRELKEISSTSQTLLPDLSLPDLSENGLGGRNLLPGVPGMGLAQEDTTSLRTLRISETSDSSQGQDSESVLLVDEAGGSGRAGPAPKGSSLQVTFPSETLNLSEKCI
Description: as §1, §2, §3, §4, §5

[6] = molecular target: T6, human prostanoid TP receptor (Homo sapiens, UniProt P21731); assay: FLIPR Ca2+ signaling antagonist assay, TP receptor stable cell line; settings: HEK-293 EBNA stable cell line; standard agonist U-46619; NA = inactive (no antagonism or Kb 10,000 nM); PAg, Ag not defined
T6 construct: expressed in transfected cells
T6 sequence (P21731 1-343): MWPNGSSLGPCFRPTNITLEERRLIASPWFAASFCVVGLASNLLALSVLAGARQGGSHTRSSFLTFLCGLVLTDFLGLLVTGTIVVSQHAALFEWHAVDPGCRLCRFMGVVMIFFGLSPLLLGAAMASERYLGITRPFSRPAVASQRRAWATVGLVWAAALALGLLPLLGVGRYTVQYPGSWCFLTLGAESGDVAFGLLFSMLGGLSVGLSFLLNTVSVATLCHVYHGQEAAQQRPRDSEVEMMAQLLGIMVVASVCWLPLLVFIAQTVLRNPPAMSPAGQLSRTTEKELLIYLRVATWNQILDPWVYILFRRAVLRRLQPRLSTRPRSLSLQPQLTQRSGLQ
Description: as §1, §2, §3, §4, §5

Structure (SMILES)	Kb [1]	Kb [2]	Kb [3]	Kb [4]	Kb [5]	Kb [6]	TP (FLIPR) Kb [6]	DP1 (FLIPR) Kb [4]	EP1 (FLIPR) Kb [2]
C/C=C(\C)COc1ccc(Br)cc1Cn1nc(CCC(=O)O)cc1C [Example 9, 3-[1-(5-Bromo-2-((E)-2-methyl-but-2-enyloxy)-benzyl)-5-methyl-1H-pyrazol-3-yl]-propionic acid]	4800 nM	11 nM	400 nM	750 nM	600 nM	2 nM			
Cc1cc(CC(C)C(=O)O)nn1Cc1cc(Cl)ccc1OCC1CCCC1 (racemic) [Example 70, 3-{1-[5-Chloro-2-(2-cyclopentylmethoxy)-benzyl]-5-methyl-1H-pyrazol-3-yl}-2-methyl-propionic acid]	2000 nM	30 nM	130 nM	450 nM	80 nM	120 nM			
CCC(CC)COc1ccc(-c2ccccc2)cc1Cn1nc(CCC(=O)O)cc1C [Example 63, 3-{1-[4-(2-Ethyl-butoxy)-biphenyl-3-ylmethyl]-5-methyl-1H-pyrazol-3-yl}-propionic acid]	2200 nM	700 nM	60 nM	170 nM	4000 nM		PAg		
Cc1cc(CC(C)(C)C(=O)O)nn1Cc1cc(Cl)ccc1OCC1CCCC1 [Example 72, 3-{1-[5-Chloro-2-(2-cyclopentylmethoxy)-benzyl]-5-methyl-1H-pyrazol-3-yl}-2,2-dimethyl-propionic acid]	1700 nM	70 nM	450 nM	560 nM	180 nM	40 nM			
Cc1cc(CCC(=O)O)nn1Cc1cc(Cl)ccc1CCC1CCCC1 [Example 74]	2200 nM	1300 nM	3500 nM	600 nM	3300 nM	190 nM			
Cc1cc(CCC(=O)NS(=O)(=O)C(F)(F)F)nn1Cc1cc(Br)ccc1OCC1CCCC1 [Example 18, N-(3-{1-[5-Bromo-2-(2-cyclopentylmethoxy)-benzyl]-5-methyl-1H-pyrazol-3-yl}-propionyl)-C,C,C-trifluoro-methanesulfonamide]	3100 nM	14 nM	250 nM	400 nM	300 nM	2 nM			
CCc1ccc(OCC(CC)CC)c(Cn2nc(CCC(=O)O)cc2C)c1 [Example 66, 3-{1-[5-Ethyl-2-(2-ethyl-butoxy)-benzyl]-5-methyl-1H-pyrazol-3-yl}-propionic acid]	1500 nM	100 nM	500 nM	260 nM	900 nM	8 nM			
CCC(CC)COc1ccc(Br)cc1Cn1ccc(CCC(=O)O)n1 [Example 59, 3-{1-[5-Bromo-2-(2-ethyl-butoxy)-benzyl]-1H-pyrazol-3-yl}-propionic acid]	2700 nM	160 nM	1200 nM	300 nM	100 nM	1 nM			
Cc1cc(CCC(=O)O)nn1Cc1cc(Cl)ccc1C#CCC(C)C [Example 76, 3-{1-[5-Chloro-2-(4-methylpentynyl)-benzyl]-5-methyl-1H-pyrazol-3-yl}-propionic acid]	4500 nM	200 nM	160 nM		1200 nM	7 nM		PAg	
CCCCCCCOc1ccc(Br)cc1Cn1nc(CCC(=O)O)cc1C [Example 15, 3-[1-(5-Bromo-2-heptyloxybenzyl)-5-methyl-1H-pyrazol-3-yl]-propionic acid]	2000 nM		500 nM	400 nM	8100 nM	500 nM			PAg
CCC(CC)Oc1ccc(Cl)cc1Cn1nc(CCC(=O)O)cc1C [Example 45, 3-[1-(5-Chloro-2-(1-ethylpropyloxy)benzyl)-5-methyl-1H-pyrazol-3-yl]-propionic acid]	6100 nM	240 nM	660 nM	500 nM		35 nM			
CCC(C)CCOc1ccc(Cl)cc1Cn1nc(CCC(=O)O)cc1C (centres unmarked) [Example 22, 3-[1-(5-Chloro-2-(3-methylpentyloxy)benzyl)-5-methyl-1H-pyrazol-3-yl]-propionic acid]	5200 nM	140 nM	90 nM	340 nM	600 nM	< 1 nM			
C#Cc1ccc(OCC(CC)CC)c(Cn2nc(CCC(=O)O)cc2C)c1 [Example 64, 3-{1-[5-Ethynyl-2-(2-ethyl-butoxy)-benzyl]-5-methyl-1H-pyrazol-3-yl}-propionic acid]	2000 nM	270 nM	50 nM	800 nM	500 nM	9 nM			
